Reference: patent US20190308988A1, “OPIOID RECEPTOR ANTAGONIST PRODRUGS” (Nirsum Laboratories, Inc., priority 2017, published 2019)
≈ marks a conversion by molar mass, not a printed value.

Tests used:
[1] = Liver S9 fraction stability, dog; assay type: in vitro ADME; details: dog liver S9 1.0 mg/ml, 2 μM, 37° C.
Protocol: (§1) Liver S9 fraction stability determination of the test compounds in dog, cynomolgus monkey and human is performed using HPLC-MS. Test compound (2 μM, 0.1% DMSO, 1% Methanol final concentration) was assessed for stability in a 50 μl phosphate buffer containing 1.0 mg/ml S9 protein from each of the three species and 5 mM D-saccharic acid-1, 4-lactone. Samples were incubated at 37° C. for 60 minutes and the % compound remaining was assessed.

[2] = Liver S9 fraction stability, monkey; assay type: in vitro ADME, cynomolgus monkey; details: monkey liver S9 1.0 mg/ml, 2 μM, 37° C.
Protocol: as §1

[3] = Liver S9 fraction stability, human; assay type: in vitro ADME; details: human liver S9 1.0 mg/ml, 2 μM, 37° C.
Protocol: as §1

[4] = Solubility determination in oil (Table 10); details: thermodynamic from solid; for solubility at 24 h: 25 °C, Obs. Temp. 25 °C; for solubility / solubility thermodynamic: 40 °C, Obs. Temp. 40 °C; for solubility thermodynamic: water, Equilibrium solubility: Water
Protocol: A known amount of test substance (˜40 mg) was weighed into the vial, 100 μL of oil was added and heated to 60° C. and then system was slurried to reach equilibrium. […] Extra oil was added into the vial once compound precipitated out and then the system was re-equilibrated at 1000 rpm at room temperature (25° C.). Final concentration was determined by HPLC method as described below in Table 6a and 6b.

[5] = Rat pharmacokinetic studies, intramuscular administration; assay type: in vivo, male Sprague Dawley Rats; details: male, Sprague Dawley, rat, plasma, im, Sesame oil + 1% Benzyl Alcohol; for AUC(0-inf): read-out: AUC0-inf (ng · h/mL) prodrug; for half-life: read-out: Half-life t1/2 (hour) prodrug (converted)
Protocol: The purpose of this study is to determine the pharmacokinetics of test compounds in plasma, following intramuscular administration to male Sprague Dawley Rats (n=3, unless otherwise specified).
The dose formulation of 400 mg base equivalents/ml in sesame oil+1% benzyl alcohol (unless otherwise specified) was administered by intramuscular injection. The dose volume was determined by the animals' body weight determined on the morning of dosing day.
Each collected blood sample was centrifuged for 4 minutes at 4° C. and 10000 rpm for plasma collection. Plasma was collected and transferred into a pre-labeled PP tube in dry ice at each time point and precipitated immediately using ACN at a ratio of 1:4 (plasma:ACN). Centrifuged again (10 minutes, 12000 rpm) and obtain the supernatant.
(§2) LC-MS/MS methods for the quantitative determination of test compound in biological matrix were developed. […] The sample analysis was performed concurrently with a set of calibration standards and two sets of QC samples using the LC-MS/MS method.
(§3) Plasma concentration versus time data was analyzed by non-compartmental approaches using the Phoenix WinNonlin 6.3 software program. Cmax, Tmax, T1/2, AUC(0-t), AUC(0-inf), MRT(0-t), MRT(0-inf) and graphs of plasma concentration versus time profile were prepared.

[6] = Dog pharmacokinetic studies, deep intramuscular administration; assay type: in vivo, Beagle dogs; details: for AUC(0-inf) / half-life: Beagle, dog, plasma, im; for AUC(0-inf): read-out: AUC0-inf (ng · h/mL) prodrug; for half-life: read-out: Half-life t1/2 (hour) prodrug (converted)
Protocol: The purpose of this study is to determine the pharmacokinetics of test compounds in plasma, following deep intramuscular administration to Beagle dogs (n=3, unless otherwise specified).
The dose formulation (concentration—400 mg base equivalents/ml in sesame oil+1% benzyl alcohol, unless otherwise specified) was administered via deep intramuscularly (unless otherwise specified). The injection vehicle was also dosed via deep intramuscular route (unless otherwise specified) on contralateral site of each animal at study initiation. The animals were sedated with Propofol at 6 mg/kg via IV administration. Following sedation hair was carefully removed from around the injection site and the area gently cleaned. Care will be taken to avoid irritating skin during shaving and cleaning the injection site. Then dogs will be dosed with deep IM administration. At least 2.5 cm depth from the surface into the central aspect of the quadriceps or biceps femoris muscle, by angling the needle toward the femur. If the needle hits the femur, simply draws back slightly and then inject. The dose volume will be determined by the animals' body weight collected on the morning of dosing day. For repeated administration, the injection sites may be rotated to minimize tissue injury.
Blood samples were collected from a peripheral vessel from restrained, non-sedated animals per sampling time point.
Approximately 0.8 mL blood will be collected at each time point.
Each collected blood sample was centrifuged for 4 minutes at 4° C. and 10000 rpm for plasma collection. Plasma was collected and transferred into a pre-labeled PP tube in dry ice at each time point and precipitated immediately using ACN at a ratio of 1:4 (plasma:ACN).
as §2, §3

DOR = target: T1, DOR (Homo sapiens, UniProt P41143); assay: Opioid receptor binding assay, DOR ([3H]-DADLE)
T1 construct: expressed in transfected cells
Protocol: (§4) Receptor binding assays were performed to assess the ability of compounds to inhibit binding to radiolabeled ligand.
(§5) The stable cell lines were established and prepared cell membrane obtained using these cell lines.
(§6) 1) Transfer 1 μl of specified concentration compound to assay plate according to the plate map for nonspecific binding. Transfer 1 μl of DMSO to assay plate according to plate map for total binding. 2) Follow the plate map. Dispense 99 μl of membrane stocks into the plate. 3) Add 100 μl of radio ligand. 4) Seal the plates. Incubate at RT for 1 hour. 5) Soak the Unifilter-96 GF/C filter plates with 50 μl of 0.3% PEI per well for at least 0.5 hour at room temperature. 6) When binding assays are completed, filter the reaction mixture through GF/C plates using Perkin Elmer Filtermate Harvester, and then wash each plate for 4 times with cold wash buffer. 7) Dry the filter plates for 1 hour at 50 degrees. 8) After drying, seal the bottom of the filter plate wells using Perkin Elmer Unifilter-96 backing seal tape. Add 50 μl of Perkin Elmer Microscint 20 cocktail. Seal top of filter plates with Perkin Elmer TopSeal-A sealing film. 9) Count ^3H trapped on filter using Perkin Elmer MicroBeta2 Reader second day. 10) Analyze the data with GraphPad Prism 5. Calculate the “Inhibition [% Control]” using the equation: % Inh=(1−Background subtracted Assay value/Background subtracted HC value)*100.

KOR = target: T2, KOR (Homo sapiens, UniProt P41145); assay: Opioid receptor binding assay, KOR ([3H]Diprenorphine)
T2 construct: expressed in transfected cells
Protocol: as §4, §5, §6

MOR = target: T3, MOR (Homo sapiens, UniProt P35372); assay: Opioid receptor binding assay, MOR ([3H]DAMGO)
T3 construct: expressed in transfected cells
Protocol: as §4, §5, §6

[7] = oil or lipid, Approximate Solubility in Excipient: Cottonseed oil, Heating Temp. 60 °C
[8] = oil or lipid, Approximate Solubility in Excipient: Sesame oil, Heating Temp. 60 °C
[9] = 30 mg/kg, IM 30 mg/kg, Sesame oil + 1% Benzyl Alcohol
[10] = 48 mg/kg, IM 48 mg/kg, Sesame oil + 1% Benzyl Alcohol
[11] = 96 mg/kg, IM 96 mg/kg, Sesame oil + 1% Benzyl Alcohol
[12] = 30 mg/kg, IM 30 mg/kg, Cottonseed + 1% Benzyl Alcohol
[13] = 48 mg/kg, IM 48 mg/kg, Cottonseed + 1% Benzyl Alcohol
[14] = IM 96 mg/kg, Cottonseed oil + 1% Benzyl Alcohol

T1 sequence (P41143 whole entry): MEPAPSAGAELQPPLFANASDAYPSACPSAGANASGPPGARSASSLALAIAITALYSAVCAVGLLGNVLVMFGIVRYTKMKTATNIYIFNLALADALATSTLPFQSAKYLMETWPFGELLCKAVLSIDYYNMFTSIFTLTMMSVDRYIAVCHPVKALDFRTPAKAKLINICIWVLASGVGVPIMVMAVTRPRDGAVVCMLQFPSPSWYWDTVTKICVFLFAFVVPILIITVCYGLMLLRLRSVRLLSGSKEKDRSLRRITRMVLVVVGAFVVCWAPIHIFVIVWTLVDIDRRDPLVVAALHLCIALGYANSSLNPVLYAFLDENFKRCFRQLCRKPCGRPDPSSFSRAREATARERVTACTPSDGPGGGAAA
T3 sequence (P35372 whole entry): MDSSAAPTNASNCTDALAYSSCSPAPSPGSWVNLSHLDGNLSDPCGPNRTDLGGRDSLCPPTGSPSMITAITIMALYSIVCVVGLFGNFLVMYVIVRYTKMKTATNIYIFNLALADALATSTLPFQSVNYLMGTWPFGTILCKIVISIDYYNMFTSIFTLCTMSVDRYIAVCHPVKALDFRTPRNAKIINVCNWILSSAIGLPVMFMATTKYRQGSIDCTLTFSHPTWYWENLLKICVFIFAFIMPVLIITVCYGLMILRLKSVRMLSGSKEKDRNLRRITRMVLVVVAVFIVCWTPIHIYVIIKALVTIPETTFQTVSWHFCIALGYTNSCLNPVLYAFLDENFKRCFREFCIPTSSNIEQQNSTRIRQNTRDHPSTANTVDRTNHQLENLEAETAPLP
T2 sequence (P41145 whole entry): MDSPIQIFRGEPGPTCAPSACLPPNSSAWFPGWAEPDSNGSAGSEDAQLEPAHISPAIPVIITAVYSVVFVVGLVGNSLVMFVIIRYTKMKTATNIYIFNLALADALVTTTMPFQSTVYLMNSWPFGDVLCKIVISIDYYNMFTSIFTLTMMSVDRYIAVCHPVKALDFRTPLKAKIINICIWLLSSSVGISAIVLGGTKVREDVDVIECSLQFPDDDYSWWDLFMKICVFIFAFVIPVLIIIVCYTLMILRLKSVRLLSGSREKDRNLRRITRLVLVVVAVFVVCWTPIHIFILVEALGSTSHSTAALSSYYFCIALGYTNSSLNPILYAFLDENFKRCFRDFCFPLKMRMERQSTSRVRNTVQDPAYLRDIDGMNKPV

Row | Compound | solubility at 24 h [4, 7] [mg/mL] | solubility at 24 h [4, 8] [mg/mL] | solubility thermodynamic ([4]; Heating Temp. 40 °C) [µg/mL] | IC50 (DOR) [nM] | IC50 (KOR) [nM] | IC50 (MOR) [nM] | further results
1 | C=C1CC[C@@]2(O)C3Cc4ccc(OC(=O)CCCCCCC/C=C/CCCCCCCC)c5c4[C@@]2(CCN3CC2CC2)[C@H]1O5 [Compound 15, (4aS,7aS,12bS)-3-(cyclopropylmethyl)-4a-hydroxy-7-methylene-2,3,4,4a,5,6,7,7a-octahydro-1H-4,12-methanobenzofuro[3,2-e]isoquinolin-9-yl (E)-octadec-9-enoate] | > 403 | > 396 | < 0.2 |  |  |  | % remaining at 60 minutes, Dog [1]: 80.9%; % remaining at 60 minutes, Monkey [2]: 76.7%; % remaining at 60 minutes, Human [3]: 59.8%; solubility ([4]; oil or lipid, Approximate Solubility in Excipient: Cottonseed oil, Heating Temp. 40 °C): < 51 mg/mL; solubility [4, 7]: > 401 mg/mL; solubility ([4]; oil or lipid, Approximate Solubility in Excipient: Sesame oil, Heating Temp. 40 °C): < 52 mg/mL; solubility [4, 8]: > 404 mg/mL; solubility ([4]; organic solvent or mixture, Approximate Solubility in Excipient: Ethanol, Heating Temp. 40 °C): < 20 mg/mL; AUC(0-inf) ([5]; 80 mg/kg): 679 ng·h/mL; half-life ([5]; 80 mg/kg): 1550 h; AUC(0-inf) ([5]; 123 mg/kg): 2570 ng·h/mL; half-life ([5]; 123 mg/kg): 884 h; AUC(0-inf) ([5]; 165 mg/kg): 2790 ng·h/mL; half-life ([5]; 165 mg/kg): 500 h; AUC(0-inf) [6, 9]: 521 ng·h/mL; half-life [6, 9]: 134 h; AUC(0-inf) [6, 10]: 1140 ng·h/mL; half-life [6, 10]: 518 h; AUC(0-inf) [6, 11]: 1350 ng·h/mL; half-life [6, 11]: 162 h
2 | C=C1CC[C@@]2(O)C3Cc4ccc(OCOC(=O)OCCCCCCCCCCCCCCCC)c5c4[C@@]2(CCN3CC2CC2)[C@H]1O5 [Compound 34, (((4aS,7aS,12bS)-3-(cyclopropylmethyl)-4a-hydroxy-7-methylene-2,3,4,4a,5,6,7,7a-octahydro-1H-4,12-methanobenzofuro[3,2-e]isoquinolin-9-yl)oxy)methyl hexadecyl carbonate] | > 404 | > 405 | < 1 | > 10000 | 1770 | 12.5 | 
3 | C=C1CC[C@@]2(O)C3Cc4ccc(OCOC(=O)CCCCCCCCCCC)c5c4[C@@]2(CCN3CC2CC2)[C@H]1O5 [Compound 44, (((4aS,7aS,12bS)-3-(cyclopropylmethyl)-4a-hydroxy-7-methylene-2,3,4,4a,5,6,7,7a-octahydro-1H-4,12-methanobenzofuro[3,2-e]isoquinolin-9-yl)oxy)methyl dodecanoate] | > 407 | 208 to 231 (≈ 377 to 419 mM) | < 1 | 190 | 18.4 | 3.03 | 
4 | C=C1CC[C@@]2(O)C3Cc4ccc(OCOC(=O)CCCCCCCCCCCCC)c5c4[C@@]2(CCN3CC2CC2)[C@H]1O5 [Compound 45, (((4aS,7aS,12bS)-3-(cyclopropylmethyl)-4a-hydroxy-7-methylene-2,3,4,4a,5,6,7,7a-octahydro-1H-4,12-methanobenzofuro[3,2-e]isoquinolin-9-yl)oxy)methyl tetradecanoate] | > 402 | 267 to 288 (≈ 460 to 497 mM) | < 1 | 68.4 | 5.5 | 2 | AUC(0-inf) [6, 12]: 100 ng·h/mL; half-life [6, 12]: 151 h; AUC(0-inf) [6, 13]: 267 ng·h/mL; half-life [6, 13]: 171 h; AUC0-inf (ng · h/mL) prodrug [6, 14]: None; Half-life t1/2 (hour) prodrug [6, 14]: None
5 | C=C1CC[C@@]2(O)C3Cc4ccc(OCOC(=O)CCCCCCCCCCCCCCC)c5c4[C@@]2(CCN3CC2CC2)[C@H]1O5 [Compound 46, (((4aS,7aS,12bS)-3-(cyclopropylmethyl)-4a-hydroxy-7-methylene-2,3,4,4a,5,6,7,7a-octahydro-1H-4,12-methanobenzofuro[3,2-e]isoquinolin-9-yl)oxy)methyl hexadecanoate] | > 396 | 202 to 269 (≈ 332 to 443 mM) | < 1 | 1360 | 33.9 | 4.52 | 
